Data reported in publication PMC4661537 (2015).

Tests used:
[1] = test system: Spi-tRNA (RNA, aptamer) GCCCGGAUAGCUCAGUCGGUAGAGCAGCGGCCGGACGCAACUGAAUGAAAUGGUGAAGGACGGGUCCAGGUGUGGCUGCUUCGGCAGUGCAGCUUGUUGAGUAGAGUGUGAGCUCCGUAACUAGUCGCGUCCGGCCGCGGGUCCAGGGUUCAAGUCCCUGUUCGGGCGCCA; assay: fluorescence activation; conditions: K+ 125 mM, Mg2+ 5 mM (folding buffer); fluorescence slightly higher than single Spinach
[2] = test system: Spi (single Spinach aptamer, 24-2) (RNA, aptamer) GACGCAACUGAAUGAAAUGGUGAAGGACGGGUCCAGGUGUGGCUGCUUCGGCAGUGCAGCUUGUUGAGUAGAGUGUGAGCUCCGUAACUAGUCGCGUC; assay: fluorescence association kinetics (koff/kon); conditions: K+ 125 mM, Mg2+ 5 mM (folding buffer); 40 mM K-HEPES pH 7.5; 40 nM aptamer, DFHBI 200-600 nM; mean over concentrations; biphasic; per site
[3] = test system: Spi-8R (RNA, aptamer) UAGACGGCAUGGGGAGACGCGACCGAAAUGGUGAAGGACGGGUCCAGUGCUUCGGCACUGUUGAGUAGAGUGUGAGCUCCGUAACUGGUCGCGUCACGUAAGAUGCUCCGGUUAGGGAGACGCGACCGAAAUGGUGAAGGACGGGUCCAGUGCUUCGGCACUGUUGAGUAGAGUGUGAGCUCCGUAACUGGUCGCGUCACUGAUGUACCGUUGAGCAGGGAGACGCGACCGAAAUGGUGAAGGACGGGUCCAGUGCUUCGGCACUGUUGAGUAGAGUGUGAGCUCCGUAACUGGUCGCGUCACUCGCUAGAGCAUGGUUUGGGAGACGCGACCGAAAUGGUGAAGGACGGGUCCAGUGCUUCGGCACUGUUGAGUAGAGUGUGAGCUCCGUAACUGGUCGCGUCACUGGGGCACGCCGUCUGGGGGAGACGCGACCGAAAUGGUGAAGGACGGGUCCAGUGCUUCGGCACUGUUGAGUAGAGUGUGAGCUCCGUAACUGGUCGCGUCACUUACUGCGACCGCAAUAGGGAGACGCGACCGAAAUGGUGAAGGACGGGUCCAGUGCUUCGGCACUGUUGAGUAGAGUGUGAGCUCCGUAACUGGUCGCGUCACGCGCGCAACCGGGUAGAGGGAGACGCGACCGAAAUGGUGAAGGACGGGUCCAGUGCUUCGGCACUGUUGAGUAGAGUGUGAGCUCCGUAACUGGUCGCGUCACGUAACUCACGGCGCUAUGGGAGACGCGACCGAAAUGGUGAAGGACGGGUCCAGUGCUUCGGCACUGUUGAGUAGAGUGUGAGCUCCGUAACUGGUCGCGUC; assay: fluorescence association kinetics (koff/kon); conditions: K+ 125 mM, Mg2+ 5 mM (folding buffer); 40 mM K-HEPES pH 7.5; 10 nM RNA (34.8 nM folded aptamer), DFHBI 200-600 nM; per aptamer; biphasic; per site

## CC1=N/C(=C\c2cc(F)c(O)c(F)c2)C(=O)N1C
[1]
  binding: yes
[2]
  KD: 303 ± 22 nM
[3]
  KD: 246 ± 67 nM
